Test results as given in patent US7601746B2 (Shionogi & Co., Ltd., priority 2003, dated 2009).

Target: T1, human TPO receptor (hTPOR) (Homo sapiens, UniProt P40238)
T1 construct: expressed in transfected cells; host or cells: BaF-B03 (murine IL-3 dependent cell line)
T1 sequence (P40238 26-635): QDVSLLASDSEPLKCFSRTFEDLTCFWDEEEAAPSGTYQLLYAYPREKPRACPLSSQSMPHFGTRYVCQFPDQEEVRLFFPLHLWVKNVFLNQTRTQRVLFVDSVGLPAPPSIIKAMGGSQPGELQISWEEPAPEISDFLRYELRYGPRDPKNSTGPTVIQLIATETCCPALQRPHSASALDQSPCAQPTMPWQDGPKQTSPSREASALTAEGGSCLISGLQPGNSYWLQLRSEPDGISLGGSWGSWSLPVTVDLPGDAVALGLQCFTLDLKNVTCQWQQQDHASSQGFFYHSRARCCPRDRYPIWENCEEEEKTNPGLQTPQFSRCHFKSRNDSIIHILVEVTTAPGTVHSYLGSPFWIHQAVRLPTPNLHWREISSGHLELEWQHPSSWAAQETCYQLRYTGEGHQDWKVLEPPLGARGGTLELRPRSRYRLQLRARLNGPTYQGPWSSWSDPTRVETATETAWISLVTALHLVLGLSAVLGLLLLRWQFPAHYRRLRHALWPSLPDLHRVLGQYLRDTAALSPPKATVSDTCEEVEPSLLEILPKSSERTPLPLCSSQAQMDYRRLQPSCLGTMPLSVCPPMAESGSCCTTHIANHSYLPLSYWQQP
Assay: Thrombopoietic activity: proliferation of TPO dependent BaF/hTPOR cells (WST-1, absorbance at 450 nm)
Type: cell-based
Settings: 20 h + 4 h WST-1, ED50 = half concentration of the concentration showing the maximum thrombopoietic activity
Outline: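 Proliferation read-out: WST-1 absorbance at 450 nm after 20 h compound exposure plus 4 h reagent, using IL-3-deprived BaF/hTPOR cells (5×10^4 per well) dependent on human TPO receptor signalling. ED50 defined as half the concentration producing maximal activity.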

| EC50 (Table 1) | EC50 (Table 2) | Compound |
| --- | --- | --- |
| 10.9 nM | – | COc1c(CCCOCC2CCCC2)cccc1-c1csc(NC(=O)c2cc(F)c(/C=C(\C)C(=O)O)c(F)c2)n1 [Compound B1948, (E)-3-(4-{4-[3-(3-cyclopentylmethyloxypropyl)-2-methyloxyphenyl]thiazol-2-ylcarbamoyl}-2,6-difluorophenyl)-2-methylacrylic acid] |
| 1 nM | – | COC(c1cccc(-c2csc(NC(=O)c3cc(F)c(C=C(C)C(=O)O)c(F)c3)n2)c1F)C(C)(C)C (stereo not shown) [Compound B13, 3-(2,6-difluoro-4-{4-[2-fluoro-3-(1-methyloxy-2,2-dimethylpropyl)phenyl]thiazol-2-ylcarbamoyl}phenyl)-2-methylacrylic acid] |
| 12.9 nM | – | COc1c(CCOCCC(C)C)cccc1-c1csc(NC(=O)c2cc(F)c(/C=C(\C)C(=O)O)c(F)c2)n1 [Compound B1954] |
| 0.87 nM | – | CCCCOCCCc1cccc2c1CCc1sc(NC(=O)c3cc(Cl)c(C=C(C)C(=O)O)c(Cl)c3)nc1-2 [Compound A11, 3-{4-[6-(3-n-butyloxypropyl)-4,5-dihydronaphtho[1,2-d]thiazol-2-ylcabamoyl]-2,6-dichlorophenyl}-2-methylacrylic acid] |
| 0.72 nM | – | CCCCCCOC(CC)c1cccc(-c2csc(NC(=O)c3cc(Cl)c(C=C(C)C(=O)O)c(Cl)c3)n2)c1F (stereo not shown) [Compound B83, 3-(2,6-dichloro-4-{4-[2-fluoro-3-(1-n-hexyloxypropyl)phenyl]thiazol-2-ylcarbamoyl}phenyl)-2-methylacrylic acid] |
| 8.25 nM | – | CCCCOC(C)c1cccc(-c2csc(NC(=O)c3cc(Cl)c(/C=C(\C)C(=O)O)c(Cl)c3)n2)c1OC (stereo not shown) [Compound B1122, (E)-3-(4-{4-[3-(1-butyloxyethyl)-2-methyloxyphenyl]thiazol-2-ylcarbamoyl}-2,6-dichlorophenyl)-2-methylacrylic acid] |
| 7.57 nM | – | CCC(CC)COCCc1cccc(-c2csc(NC(=O)c3cc(Cl)c(/C=C(\C)C(=O)O)c(Cl)c3)n2)c1OC [Compound B1958, (E)-3-[2,6-dichloro-4-(4-{3-[2-(2-ethylbutyloxy)ethyl]-2-methyloxyphenyl}thiazol-2-ylcarbamoyl)phenyl]-2-methylacrylic acid] |
| 1.02 nM | – | CCCCCCCCCCC(OC)c1cccc(-c2csc(NC(=O)c3cc(Cl)c(C=C(C)C(=O)O)c(Cl)c3)n2)c1F (stereo not shown) [Compound B91, 3-(2,6-dichloro-4-{4-[2-fluoro-3-(1-methyloxyundecyl)phenyl]thiazol-2-ylcarbamoyl)phenyl]-2-methylacrylic acid] |
| 19.4 nM | – | CCCCCCOCCc1cccc(-c2csc(NC(=O)c3cc(F)c(/C=C(\OC)C(=O)O)c(F)c3)n2)c1OC [Compound B1927, (Z)-3-(2,6-difluoro-4-{4-[3-(2-hexyloxyethyl)-2-methyloxyphenyl]thiazol-2-ylcarbamoyl)phenyl)-2-methyloxyacrylic acid] |
| 2.98 nM | – | CCCCCCCCCCOCc1cccc(-c2csc(NC(=O)c3cc(Cl)c(C=C(C)C(=O)O)c(Cl)c3)n2)c1F [Compound B76, 3-{2,6-dichloro-4-[4-(3-n-decyloxymethyl-2-fluorophenyl)thiazol-2-ylcarbamoyl]phenyl}-2-methylacrylic acid] |
| 0.82 nM | – | CCCOCCCc1cccc(-c2csc(NC(=O)c3cc(Cl)c(C=C(C)C(=O)O)c(Cl)c3)n2)c1F [Compound B95, 3-(2,6-dichloro-4-{4-[2-fluoro-3-(3-n-propyloxypropyl)phenyl]thiazol-2-ylcarbamoyl)phenyl]-2-methylacrylic acid] |
| 13 nM | – | COc1c(CCCOCC(C)C)cccc1-c1csc(NC(=O)c2cc(F)c(/C=C(\C)C(=O)O)c(F)c2)n1 [Compound B1877, (E)-3-(2,6-difluoro-4-{4-[3-(3-isobuyloxypropyl)-2-methyloxyphenyl]thiazol-2-ylcarbamoyl}phenyl)-2-methylacrylic acid] |
| – | 20.5 nM | CCCCCCCOc1cccc(-c2csc(NC(=O)c3cc(F)c(/C=C(\OC)C(=O)O)c(F)c3)n2)c1OC [Compound B2000, (Z)-3-{2,6-difluoro-4-[4-(3-heptyloxy-2-methyloxyphenyl)thiazol-2-ylcarbamoyl]phenyl}-2-methyloxyacrylic acid] |
| 1.19 nM | – | COC(c1cccc(-c2csc(NC(=O)c3cc(Cl)c(C=C(C)C(=O)O)c(Cl)c3)n2)c1F)C(C)(C)C (stereo not shown) [Compound B64, 3-(2,6-dichloro-4-{4-[2-fluoro-3-(1-methyloxy-2,2-dimethylpropyl)phenyl]thiazol-2-ylcarbamoyl}phenyl)-2-methylacrylic acid] |
| 13.2 nM | – | CCCCCCCOCc1cccc(-c2csc(NC(=O)c3cc(Cl)c(/C=C(\C)C(=O)O)c(Cl)c3)n2)c1OC [Compound B1991, (E)-3-{2,6-dichloro-4-[4-(3-heptyloxymethyl-2-methyloxyphenyl)thiazol-2-ylcarbamoyl]phenyl}-2-methylacrylic acid] |
| 1.04 nM | – | CC(=Cc1c(F)cc(C(=O)Nc2nc3c(s2)CCc2c(CCCOCC(C)(C)C)cccc2-3)cc1F)C(=O)O [Compound A6, 3-(2,6-difluoro-4-{4,5-dihydro-6-[3-(2,2-dimethylpropyloxy)propyl]naphtho[1,2-d]thiazol-2-ylcabamoyl}phenyl)-2-methylacrylic acid] |
| 0.67 nM | – | CCCCC(OCCC)c1cccc(-c2csc(NC(=O)c3cc(F)c(C=C(C)C(=O)O)c(F)c3)n2)c1F (stereo not shown) [Compound B41, 3-(2,6-difluoro-4-{4-[2-fluoro-3-(1-n-propyloxypentyl)phenyl]thiazol-2-ylcarbamoyl}phenyl)-2-methylacrylic acid] |
| 10.8 nM | – | C/C(=C\c1c(Cl)cc(C(=O)Nc2nc3c(s2)COc2c-3cccc2C(C)C)cc1Cl)C(=O)O [Compound A1312, (E)-3-[2,6-dichloro-4-(6-isopropyl-4H-chromeno[4,3-d]thiazol-2-ylcabamoyl)phenyl]-2-methylacrylic acid] |
| 10.1 nM | – | CCC(CC)COCCc1cccc(-c2csc(NC(=O)c3cc(Cl)c(/C=C(\OC)C(=O)O)c(Cl)c3)n2)c1OC [Compound B1960, (Z)-3-[2,6-dicholoro-4-(4-{3-[2-(2-ethylbutyloxy)ethyl]-2-methyloxyphenyl}thiazol-2-ylcarbamoyl)phenyl]-2-methyloxyacrylic acid] |
| 0.94 nM | – | CCCOC(C)c1cccc(-c2csc(NC(=O)c3cc(Cl)c(C=C(C)C(=O)O)c(Cl)c3)n2)c1F (stereo not shown) [Compound B97, 3-(2,6-dichloro-4-{4-[2-fluoro-3-(1-n-propyloxyethyl)phenyl]thiazol-2-ylcarbamoyl)phenyl]-2-methylacrylic acid] |
| 7.27 nM | – | CCCOCCCc1cccc2c1OCc1sc(NC(=O)c3cc(Cl)c(/C=C(\C)C(=O)O)c(Cl)c3)nc1-2 [Compound A1123, (E)-3-{2,6-dichloro-4-[6-(3-propyloxypropyl)-4H-chromeno[4,3-d]thiazol-2-ylcabamoyl]phenyl}-2-methylacrylic acid] |
| 0.62 nM | – | CCCCCCOC(CC)c1cccc(-c2csc(NC(=O)c3cc(F)c(C=C(C)C(=O)O)c(F)c3)n2)c1F (stereo not shown) [Compound B38, 3-(2,6-difluoro-4-{4-[2-fluoro-3-(1-n-hexyloxypropyl)phenyl]thiazol-2-ylcarbamoyl}phenyl)-2-methylacrylic acid] |
| 0.75 nM | – | CCCCC(OCC)c1cccc(-c2csc(NC(=O)c3cc(F)c(C=C(C)C(=O)O)c(F)c3)n2)c1F (stereo not shown) [Compound B27, 3-(2,6-difluoro-4-{4-[3-(1-ethyloxypentyl)-2-fluorophenyl]thiazol-2-ylcarbamoyl}phenyl)-2-methylacrylic acid] |
| 0.73 nM | – | CCCCCOC(c1cccc(-c2csc(NC(=O)c3cc(F)c(C=C(C)C(=O)O)c(F)c3)n2)c1F)C1CCCCC1 (stereo not shown) [Compound B14, 3-(4-{4-[3-(1-cyclohexyl-1-n-pentyloxymethyl)-2-fluorophenyl]thiazol-2-ylcarbamoyl}-2,6-difluorophenyl)-2-methylacrylic acid] |
| 1.15 nM | – | CCCCCOCCCc1cccc(-c2csc(NC(=O)c3cc(Cl)c(C=C(C)C(=O)O)c(Cl)c3)n2)c1F [Compound B90] |
| 14.6 nM | – | CCCCOCCCc1cccc(-c2csc(NC(=O)c3cc(F)c(/C=C(\C)C(=O)O)c(F)c3)n2)c1OC [Compound B419, (E)-3-(4-{4-[3-(3-butyloxypropyl)-2-methyloxyphenyl]thiazol-2-ylcarbamoyl}-2,6-difluorophenyl)-2-methylacrylic acid] |
| 2.8 nM | – | CCCCCCCCCCC(OC)c1cccc(-c2csc(NC(=O)c3cc(F)c(C=C(C)C(=O)O)c(F)c3)n2)c1F (stereo not shown) [Compound B47, 3-(2,6-difluoro-4-{4-[2-fluoro-3-(1-methyloxyundecyl)phenyl]thiazol-2-ylcarbamoyl}phenyl)-2-methylacrylic acid] |
| 15.8 nM | – | CCCCOCCCc1cccc(-c2csc(NC(=O)c3cc(Cl)c(/C=C(\C)C(=O)O)c(Cl)c3)n2)c1OC [Compound B1124, (E)-3-(4-{4-[3-(3-butyloxypropyl)-2-methyloxyphenyl]thiazol-2-ylcarbamoyl}-2,6-dichlorophenyl)-2-methylacrylic acid] |
